{
  "source": "paper PMC11258189",
  "about": "“Estrogenic, androgenic, and genotoxic activities of zearalenone and deoxynivalenol in in vitro bioassays including exogenous metabolic activation” (Mycotoxin Research, 2024)",
  "key": {"estrogen receptor (ER) [1]": {"tested_on": "estrogen receptor (ER)"}, "[2]": {"set-up": "method as in Drzymala et al. [2014]", "details": "rat liver microsomes, presence of NADPH, after 60 min; ref Drzymala et al. [2014]; cited from earlier work"}, "human androgen receptor [3]": {"biological_target": "T1, human androgen receptor (Homo sapiens, UniProt P10275)", "T1 construct": "host or cells: Chinese hamster ovary (CHO) cells, AR-EcoScreen GR KO M1, stably transfected, glucocorticoid receptor knocked out", "T1 sequence (P10275 1-920)": "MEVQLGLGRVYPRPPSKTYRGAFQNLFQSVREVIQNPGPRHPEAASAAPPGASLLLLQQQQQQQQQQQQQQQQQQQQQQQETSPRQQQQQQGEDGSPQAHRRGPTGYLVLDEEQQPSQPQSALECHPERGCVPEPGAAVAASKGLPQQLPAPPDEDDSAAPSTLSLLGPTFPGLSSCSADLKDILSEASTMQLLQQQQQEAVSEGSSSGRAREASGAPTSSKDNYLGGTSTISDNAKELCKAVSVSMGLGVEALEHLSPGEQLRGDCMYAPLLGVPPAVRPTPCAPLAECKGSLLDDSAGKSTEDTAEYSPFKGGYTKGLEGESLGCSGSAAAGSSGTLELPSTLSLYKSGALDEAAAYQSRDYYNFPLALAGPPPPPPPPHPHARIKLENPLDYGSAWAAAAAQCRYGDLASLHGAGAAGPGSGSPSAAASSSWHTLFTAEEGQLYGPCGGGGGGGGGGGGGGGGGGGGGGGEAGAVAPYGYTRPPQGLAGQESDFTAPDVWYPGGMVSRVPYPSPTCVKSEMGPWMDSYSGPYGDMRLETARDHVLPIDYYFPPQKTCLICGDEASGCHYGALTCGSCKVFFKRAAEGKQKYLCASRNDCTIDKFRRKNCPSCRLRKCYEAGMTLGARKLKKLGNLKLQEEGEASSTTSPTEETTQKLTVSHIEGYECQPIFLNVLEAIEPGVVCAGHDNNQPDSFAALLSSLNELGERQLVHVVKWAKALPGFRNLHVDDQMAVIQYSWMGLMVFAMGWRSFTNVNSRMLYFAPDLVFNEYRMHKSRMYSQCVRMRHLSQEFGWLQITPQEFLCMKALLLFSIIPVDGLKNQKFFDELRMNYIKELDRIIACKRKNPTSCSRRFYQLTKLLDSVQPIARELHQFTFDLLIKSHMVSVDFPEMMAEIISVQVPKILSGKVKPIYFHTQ", "type": "cell-based"}, "AR": {"tested_on": "AR", "set-up": "method as in Molina-Molina et al. [2014]", "details": "ref Molina-Molina et al. [2014], cited from earlier work"}, "human androgen receptor [4]": {"biological_target": "T1, human androgen receptor", "type": "cell-based", "remark": "listed apart in the source"}, "estrogen receptor (ER) [5]": {"tested_on": "estrogen receptor (ER)", "type": "cell-based, human"}, "[6]": {"set-up": "method as in Drzymala et al. [2015]", "details": "ref Drzymala et al. [2015]; cited from earlier work"}, "[7]": {"details": "ZEN compounds, S9 + PHI + PHII cofactors, [95% CI]"}, "[8]": {"details": "ZEN compounds, S9 + PHI cofactors, [95% CI]"}, "[9]": {"details": "ZEN compounds, S9 alone, [95% CI]"}, "[10]": {"details": "ZEN compounds, no MAS, [95% CI]"}, "[11]": {"details": "without exogenous MAS, initial concentration-range finding trials, 24 h"}},
  "note": "Where two headings read alike, the source gives them in different places.",
  "data": [
    {"compound": "C[C@]12CC[C@@H]3c4ccc(O)cc4CC[C@H]3[C@@H]1CC[C@@H]2O", "note": "[E2, 17β-estradiol, reference compound]", "values": [
      {"measurement": "ER agonistic activity after treatment of cells with only S9", "setting": "estrogen receptor (ER) [1]", "result": "reduction of ER agonistic activity"}
    ]},
    {"compound": "C[C@H]1CCCC(=O)CCC/C=C/c2cc(O)cc(O)c2C(=O)O1", "note": "[ZEN, zearalenone]", "values": [
      {"measurement": "Decrease of substrate concentration to (% remaining)", "setting": "[2]", "result": "approximately 40%"},
      {"measurement": "AR antagonism IC30", "setting": "human androgen receptor [3]; [7]", "result": "18.0 [13.8,23.4] µM"},
      {"measurement": "AR antagonism IC30", "setting": "human androgen receptor [3]; [8]", "result": "7.33 [6.31,8.13] µM"},
      {"measurement": "AR antagonism IC30", "setting": "human androgen receptor [3]; [9]", "result": "2.14 [1.82,2.45] µM"},
      {"measurement": "AR antagonism IC30", "setting": "human androgen receptor [3]; [10]", "result": "2.37 [1.95,2.75] µM"},
      {"measurement": "AR antagonism IC30", "setting": "human androgen receptor [3]; [11]", "result": 3.30, "unit": "µM"},
      {"measurement": "Androgenic activities", "setting": "AR; PALM cells, 40 h of exposure, concentrations up to 10 µM", "result": "no androgenic activities were detected"},
      {"measurement": "AR antagonistic effect IC50", "setting": "AR; androgen-sensitive PALM cells", "result": "micromolar range"},
      {"measurement": "Micronuclei formation (% MN) versus vehicle controls", "setting": "TK6 cells; 5 h exposure, alone, with S9 alone or S9 with cofactors, ZEN 6.25 and 12.50 µM, DON 0.78 and 1.56 µM", "result": "neither ZEN nor DON alone or with the S9 alone or with cofactors had any statistically significant effect on % MN"},
      {"measurement": "Micronuclei formation (% MN) versus vehicle control", "setting": "TK6 cells; 24 h continuous exposure, without MAS, non-cytotoxic test concentrations", "result": "statistically significant increase in % MN"},
      {"measurement": "Test concentration with statistically significant increase in % MN (highest non-cytotoxic test concentration)", "setting": "TK6 cells; 24 h continuous exposure, without MAS, p-value of 0.0007", "result": 12.5, "unit": "µM"},
      {"measurement": "AR agonism EC10", "setting": "human androgen receptor [4]; ZEN compounds, S9 + PHI + PHII cofactors", "result": "<LOD"},
      {"measurement": "AR agonism EC10", "setting": "human androgen receptor [4]; ZEN compounds, S9 + PHI cofactors", "result": "<LOD"},
      {"measurement": "AR agonism EC10", "setting": "human androgen receptor [4]; ZEN compounds, S9 alone", "result": "<LOD"},
      {"measurement": "AR agonism EC10", "setting": "human androgen receptor [4]; ZEN compounds, no MAS", "result": "<LOD"},
      {"measurement": "AR agonism EC10", "setting": "human androgen receptor [4]; [11]", "result": "<LOD"},
      {"measurement": "ER agonism EC10", "setting": "estrogen receptor (ER) [1]; [7]", "result": 6470, "unit": "pM"},
      {"measurement": "ER agonism EC10", "setting": "estrogen receptor (ER) [1]; [8]", "result": "984 [740,1 279] pM"},
      {"measurement": "ER agonism EC10", "setting": "estrogen receptor (ER) [1]; [9]", "result": "63.3 [56.2,97.2] pM"},
      {"measurement": "ER agonism EC10", "setting": "estrogen receptor (ER) [1]; ZEN compounds, no MAS (S9 −, PHI −, PHII −), [95% CI]", "result": "46.5 [29.5,72.4] pM"},
      {"measurement": "ER agonism EC10 value range converted to a concentration range in a water sample", "setting": "estrogen receptor (ER) [1]; converted from 30–40 pM", "result": "0.01 to 0.012", "unit": "ng/mL"},
      {"measurement": "ER agonism EC10 converted to concentration in a water sample enriched 50 times", "setting": "estrogen receptor (ER) [1]; water sample enriched 50 times", "result": "approximately 0.2 ng/L"},
      {"measurement": "ER agonism EC10", "setting": "estrogen receptor (ER) [1]; [11]", "result": "30 to 40", "unit": "pM"},
      {"measurement": "ER agonism EC10", "setting": "estrogen receptor (ER) [1]; without exogenous MAS, initial concentration-range finding trials, 24 h, listed as Zearalenone (ZEN)", "result": 34.07, "unit": "pM"},
      {"measurement": "ER antagonism IC30", "setting": "estrogen receptor (ER) [5]; [8]", "result": "10.3 [8.71,11.8] µM"},
      {"measurement": "ER antagonism IC30", "setting": "estrogen receptor (ER) [5]; [9]", "result": "3.41 [2.40,4.68] µM"},
      {"measurement": "ER antagonism IC30", "setting": "estrogen receptor (ER) [5]; [10]", "result": "2.92 [2.09,3.89] µM"},
      {"measurement": "ER antagonism IC30", "setting": "estrogen receptor (ER) [5]; [11]", "result": 2.85, "unit": "µM"}
    ]},
    {"compound": "CC1CCCC(=O)CCC/C=C/c2cc(O)c(O)c(O)c2C(=O)O1", "note": "(stereo not drawn) [15-OH-ZEN]", "values": [
      {"measurement": "Estrogenic potency compared to ZEN, set at 1", "setting": "[6]", "result": 0.02}
    ]}
  ]
}
